Experimental data published in the supplement of paper PMC9663587.

Columns and labels:
LEE011/Ribociclib = compound: CN(C)C(=O)c1cc2cnc(Nc3ccc(N4CCNCC4)cn3)nc2n1C1CCCC1 [LEE011/Ribociclib]; assay: increase in dead-cell fraction, 72 h; higher = more death;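 further: breast cancer cell lines in 384-well plates, stained with Hoechst plus LIVE/DEAD far red dye and imaged, cells above an LDR intensity threshold counted dead, Hoechst-negative corpses included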
THZ531 = compound: CN(C)C/C=C/C(=O)Nc1ccc(C(=O)N2CCC[C@@H](Nc3ncc(Cl)c(-c4c[nH]c5ccccc45)n3)C2)cc1 [THZ531]; assay: as above
THZ1 [1] = compound: T1, CN(C)C/C=C/C(=O)Nc1ccc(C(=O)Nc2cccc(Nc3ncc(Cl)c(-c4c[nH]c5ccccc45)n3)c2)cc1 [THZ1]; assay: as above
Flavopiridol = compound: CN1CC[C@H](c2c(O)cc(O)c3c(=O)cc(-c4ccccc4Cl)oc23)[C@H](O)C1 [Flavopiridol]; assay: as above
Neratinib/HKI272 = compound: CCOc1cc2ncc(C#N)c(Nc3ccc(OCc4ccccn4)c(Cl)c3)c2cc1NC(=O)/C=C/CN(C)C [Neratinib/HKI272]; assay: GR value, 72 h; higher = faster growth (1 = untreated, <0 = killing);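 further: breast cancer and non-malignant breast epithelial lines, nine half-log doses, viable cells counted by Hoechst and LIVE/DEAD dye imaging versus time-zero plates and DMSO controls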
THZ1 [2] = compound: T1, THZ1; assay: as above

HCC1954 was tested, and the “increase in dead-cell fraction” value (LEE011/Ribociclib; 0.001 µM) was 0.0048, the “increase in dead-cell fraction” value (LEE011/Ribociclib; 0.003162 µM) was 0.0062 and the “increase in dead-cell fraction” value (LEE011/Ribociclib; 0.01 µM) was -0.0065. For the same cell line, the “increase in dead-cell fraction” value (LEE011/Ribociclib; 0.03162 µM) was 0.0067, the “increase in dead-cell fraction” value (LEE011/Ribociclib; 0.1 µM) was 0.006 and the “increase in dead-cell fraction” value (LEE011/Ribociclib; 0.3162 µM) was 0.0179. For the same cell line, the “increase in dead-cell fraction” value (LEE011/Ribociclib; 1 µM) was 0.0102, the “increase in dead-cell fraction” value (LEE011/Ribociclib; 3.162 µM) was 0.0144 and the “increase in dead-cell fraction” value (LEE011/Ribociclib; 10 µM) was 0.0111. For the same cell line, the “increase in dead-cell fraction” value (THZ531; 0.0001 µM) was 0.0002, the “increase in dead-cell fraction” value (THZ531; 0.0003162 µM) was 0.0055 and the “increase in dead-cell fraction” value (THZ531; 0.001 µM) was 0.0013. The “increase in dead-cell fraction” value (THZ531; 0.003162 µM) was 0.0058, the “increase in dead-cell fraction” value (THZ531; 0.01 µM) was 0.0048 and the “increase in dead-cell fraction” value (THZ531; 0.03162 µM) was 0.004. The “increase in dead-cell fraction” value (THZ531; 0.1 µM) was 0.0127, the “increase in dead-cell fraction” value (THZ531; 0.3162 µM) was 0.0525 and the “increase in dead-cell fraction” value (THZ531; 1 µM) was 0.42. For the same cell line, the “increase in dead-cell fraction” value (THZ1 [1]; 0.0001 µM) was -0.0011, the “increase in dead-cell fraction” value (THZ1 [1]; 0.0003162 µM) was 0.0018 and the “increase in dead-cell fraction” value (THZ1 [1]; 0.001 µM) was 0.0068. For the same cell line, the “increase in dead-cell fraction” value (THZ1 [1]; 0.003162 µM) was -0.0006, the “increase in dead-cell fraction” value (THZ1 [1]; 0.01 µM) was -0.0054 and the “increase in dead-cell fraction” value (THZ1 [1]; 0.03162 µM) was 0.0087. For the same cell line, the “increase in dead-cell fraction” value (THZ1 [1]; 0.1 µM) was 0.0688, the “increase in dead-cell fraction” value (THZ1 [1]; 0.3162 µM) was 0.153 and the “increase in dead-cell fraction” value (THZ1 [1]; 1 µM) was 0.596. The “increase in dead-cell fraction” value (Flavopiridol; 0.0001 µM) was 0.0057, the “increase in dead-cell fraction” value (Flavopiridol; 0.0003162 µM) was 0.0003 and the “increase in dead-cell fraction” value (Flavopiridol; 0.001 µM) was 0.0047. For the same cell line, the “increase in dead-cell fraction” value (Flavopiridol; 0.003162 µM) was 0.0096, the “increase in dead-cell fraction” value (Flavopiridol; 0.01 µM) was 0.0025 and the “increase in dead-cell fraction” value (Flavopiridol; 0.03162 µM) was 0.0079. The “increase in dead-cell fraction” value (Flavopiridol; 0.1 µM) was 0.03, the “increase in dead-cell fraction” value (Flavopiridol; 0.3162 µM) was 0.143 and the “increase in dead-cell fraction” value (Flavopiridol; 1 µM) was 0.733. It also gave a GR value (Neratinib/HKI272; 0.0003162 µM) of 1.04 GR, a GR value (Neratinib/HKI272; 0.001 µM) of 1.05 GR and a GR value (Neratinib/HKI272; 0.003162 µM) of 0.938 GR. It also gave a GR value (Neratinib/HKI272; 0.01 µM) of 0.859 GR, a GR value (Neratinib/HKI272; 0.03162 µM) of 0.533 GR and a GR value (Neratinib/HKI272; 0.1 µM) of 0.389 GR. It also gave a GR value (Neratinib/HKI272; 0.3162 µM) of 0.27 GR, a GR value (Neratinib/HKI272; 1 µM) of 0.119 GR and a GR value (Neratinib/HKI272; 3.162 µM) of -0.0858 GR. It also gave a GR value (THZ1 [2]; 0.0001 µM) of 1.03 GR, a GR value (THZ1 [2]; 0.0003162 µM) of 0.958 GR and a GR value (THZ1 [2]; 0.001 µM) of 1.01 GR. For the same cell line, the GR value (THZ1 [2]; 0.003162 µM) was 1 GR, the GR value (THZ1 [2]; 0.01 µM) was 0.939 GR and the GR value (THZ1 [2]; 0.03162 µM) was 0.85 GR. The GR value (THZ1 [2]; 0.1 µM) was 0.491 GR, the GR value (THZ1 [2]; 0.3162 µM) was -0.0278 GR and the GR value (THZ1 [2]; 1 µM) was -0.507 GR.
